Assay results: patent US12018281B2, “Cardiomyocyte maturation promoter” (Kyoto University, priority 2018, dated 2024)

These molecules were tested on embryoid bodies/cardiomyocytes derived from double knock-in human iPS cell lines (EmGFP at TNNI1, mCherry at TNNI3) (assay: mCherry expression in TNNI1+ cells by flow cytometry (Experimental Example 2)). Settings: 40 nM, 10th to 16th day of differentiation, controls 7.4 (no addition), 10.2 (0.1% DMSO).
Type: cell-based
Description: (§1) For detection of cardiomyocyte maturation, double knock-in human iPS cell lines, in which reporter protein sequences, EmGFP (Sequence Number 1) and mCherry (Sequence Number 2) were inserted into gene loci for TNNI1 and TNNI3, respectively, were prepared (the human iPS cells were prepared from episomal vector (loaded gene; OCT3/4, KLF4, SOX2, L-MYC, LIN28, mouse p53DD) using PBMC (LP_167, Sample ID:20130318) purchased from CTL (reference literature; Okita K, et al. Stem Cells. 2012 Nov. 29. doi: 10.1002/stem.1293)).
(§2) The maintenance culture of the above-mentioned reporter iPS cell lines was carried out by a conventional method (Okita K, et al. Stem Cells. 2012 Nov. 29. doi: 10.1002/stem.1293).
For differentiation induction into cardiomyocytes, the reporter iPS cell lines were treated with 0.5×TrypLE select (Life Technologies, diluted in ½ with 0.5 mM EDTA/PBS) for 4 to 5 minutes, and the cells were exfoliated using a cell scraper (IWAKI), and then dissociated into the single cell by pipetting. […]

Row | Structure (SMILES) | mCherry+ (%)
1 | CCn1nnc2cc(COC(=O)Nc3sc(-c4ccc(C)cc4OC)nc3C)ccc21 [Example No. 2, (1-ethyl-1H-benzotriazol-5-yl)methyl (2-(2-methoxy-4-methylphenyl)-4-methyl-1,3-thiazol-5-yl)carbamate] | 36.1

What follows are molecules tested on cardiomyocytes derived from double knock-in human iPS cell lines (EmGFP at TNNI1, mCherry at TNNI3) (assay: TNNI3-mCherry reporter expression by anti-mCherry immunostaining and high contents screening (Experimental Example 1)). Settings: 1 μM test compound added on 3rd and 6th culture days, measured on 8th culture day; Alexa 647 (anti-mCherry); average of n=3; control well (no addition) 797.
Type: cell-based
Description: as §1, §2
For differentiation induction into cardiomyocytes, the reporter iPS cell lines were treated with 0.5×TrypLE select (Life Technologies, diluted in ½ with 0.5 mM EDTA/PBS) for 4 to 5 minutes, and the cells were exfoliated using a cell scraper (IWAKI), and then dissociated into the single cell by pipetting. The medium was removed by centrifugation (1,000 rpm, 5 min), and the obtained cells were seeded on a bioreactor (ABLE) by 1×10^7 cells per 30 mL of the bioreactor, and then cultured in a medium prepared by adding 1% L-glutamine, transferrin 150 μg/mL, ascorbic acid 50 μg/mL (Sigma), monothioglycerol 4×10^−4 M, 10 μM Rock inhibitor (Y-27632), 2 ng/mL BMP4 (R&D) and 0.5% Matrigel (Growth Factor Reduced) to a medium after removal of solution C from StemFit AK02 (AJINOMOTO AK02, 400 mL of solution A and 100 mL of B solution, total 500 mL), at 37° C., under 5% oxygen condition (55 rpm, stirred suspension culture method) to form embryoid bodies (0 day).
Next day (1st day), 9 μL (final concentration 3 ng/mL) of […], 15 μL (final concentration 5 ng/mL) of 10 μg/mL bFGF and […] (final concentration 10 ng/mL) of 10 μg/mL BMP4 were added to the bioreactor, and the cells were cultured at 37° C. for additional 2 days, under 5% oxygen condition.
Then (3rd day), the obtained embryoid bodies were collected in a 50 mL centrifuge tube, and then subjected to centrifugation (200 g, 1 min). The medium was removed, and the embryoid bodies were cultured in a medium prepared by adding 1% L-glutamine, transferrin 150 μg/mL, ascorbic acid 50 μg/mL (Sigma), monothioglycerol 4×10^−4 M, 10 ng/mL VEGF, 1 μM IWP-3, 0.6 μM dorsomorphin and 5.4 μM SB431542 to a medium after removal of solution C from StemFit AK02 (AJINOMOTO AK02, 400 mL of solution A and 100 mL of B solution, total 500 mL), at 37° C. for 3 days, under 5% oxygen condition (55 rpm, stirred suspension culture method).
Then (6th day), the bioreactor was left to stand to precipitate the embryoid bodies, and 80 to 90% of the medium was removed. A medium prepared by adding 1% L-glutamine, transferrin 150 μg/mL, ascorbic acid 50 μg/mL (Sigma), monothioglycerol 4×10^−4 M and 5 ng/mL VEGF to a medium after removal of solution C from StemFit AK02 (AJINOMOTO AK02, 400 mL of solution A and 100 mL of B solution, total 500 mL) was added to the bioreactor so that the total volume became 30 mL, and the embryoid bodies were cultured for 8 days, at 37° C., under 5% oxygen condition (55 rpm, stirred suspension culture method). During the culture, the medium was replaced with a medium under the same conditions every 2 to 3 days.
14th Day after the start of the differentiation induction, the embryoid bodies were treated with 2 mg/mL collagenase type I (Sigma) for 2 hr, and then with 0.25% trypsin/EDTA (Invitrogen) for 10 min. 50% FBS/IMDM (Thermo Fisher Science) was added thereto, and the embryoid bodies were dissociated into the single cell by pipetting, and then subjected to centrifugation (1,000 rpm, 5 minutes). […]

Row | Structure (SMILES) | average fluorescent intensity (at 1 μM)
2 | CC[C@]1(O)C[C@H]2CN(CCc3c([nH]c4ccccc34)[C@@](C(=O)OC)(c3cc4c(cc3OC)N(C=O)[C@H]3[C@@](O)(C(=O)OC)[C@H](OC(C)=O)[C@]5(CC)C=CCN6CC[C@]43[C@@H]65)C2)C1 [Example No. 3, (2′beta)-22-oxovincaleukoblastine] | 1710
3 | Clc1ccc(CCc2nc3cc(-c4ccco4)cnc3[nH]2)cc1 [Example No. 4, 2-(2-(4-chlorophenyl)ethyl)-6-(2-furyl)-3H-imidazo[4,5-b]pyridine] | 1125
4 | COc1ccc(C[C@H](NC(=O)[C@H](C)NC(=O)CN2CCOCC2)C(=O)N[C@@H](Cc2ccccc2)C(=O)[C@]2(C)CO2)cc1 [Example No. 5, 4,5-anhydro-1,2-dideoxy-4-methyl-2-((N-(morpholin-4-ylacetyl)-L-alanyl-O-methyl-L-tyrosyl)amino)-1-phenyl-L-threo-pent-3-ulose] | 1791
5 | Nc1ccc(-c2nc3cc(-c4nc5cc(N)ccc5[nH]4)ccc3[nH]2)cc1 [Example No. 8, 2′-(4-aminophenyl)-1H,1′H-2,5′-bibenzimidazol-5-amine] | 1150
6 | COC(=O)c1c(C)[nH]c(C)c1C(=O)c1ccccc1Cc1ccccc1 [Example No. 7, methyl 4-(2-benzylbenzoyl)-2,5-dimethyl-1H-pyrrole-3-carboxylate] | 1294
7 | CCn1nnc2cc(COC(=O)Nc3sc(-c4ccc(C)cc4OC)nc3C)ccc21 [Example No. 2, (1-ethyl-1H-benzotriazol-5-yl)methyl (2-(2-methoxy-4-methylphenyl)-4-methyl-1,3-thiazol-5-yl)carbamate] | 1331
8 | COc1cccc(-c2cc3ccc(N(C)C)cc3c(N)n2)c1 [Example No. 6, 3-(3-methoxyphenyl)-N7,N7-dimethylisoquinoline-1,7-diamine] | 1305
9 | COc1ccc(/C=C\c2cc(OC)c(OC)c(OC)c2)cc1O [Example No. 1, 2-methoxy-5-((Z)-2-(3,4,5-trimethoxyphenyl)vinyl)phenol] | 1381
